Data as given in ChEMBL document CHEMBL1149507, “Synthesis, structure, and bioactivity of N'-substituted benzylidene-3,4,5-trimethoxybenzohydrazide and 3-acetyl-2-substituted phenyl-5-(3,4,5-trimethoxyphenyl)-2,3-dihydro-1,3,4-oxadiazole derivatives” (Bioorg Med Chem Lett, 2006).

How the values were obtained:
PC-3 [1] = test: Antiproliferative activity against human PC3 cell line at 1 uM by MTT assay; format: functional
Bcap37 [2] = test: Antiproliferative activity against human Bcap37 cell line at 1 uM by MTT assay; format: functional
PC-3 [3] = test: Antiproliferative activity against human PC3 cell line at 5 uM by MTT assay; format: functional
BGC-823 [4] = test: Antiproliferative activity against human BGC823 cell line at 1 uM by MTT assay; format: functional
BGC-823 [5] = test: Antiproliferative activity against human BGC823 cell line at 5 uM by MTT assay; format: functional
Bcap37 [6] = test: Antiproliferative activity against human Bcap37 cell line at 5 uM by MTT assay; format: functional
PC-3 [7] = test: Antiproliferative activity against human PC3 cell line by MTT assay; format: functional, cell-based

Row | IC50 (PC-3 [7]) [nM] | SMILES | inhibition at 1 µM (PC-3 [1]) [%] | inhibition at 1 µM (Bcap37 [2]) [%] | inhibition at 5 µM (PC-3 [3]) [%] | inhibition at 1 µM (BGC-823 [4]) [%] | inhibition at 5 µM (BGC-823 [5]) [%] | inhibition at 5 µM (Bcap37 [6]) [%]
1 | – | COc1cc(C(=O)N/N=C/c2ccccc2C(F)(F)F)cc(OC)c1OC | 45 | 56.8 | 52.9 | 22.1 | 35.6 | 80
2 | – | COc1cc(C(=O)N/N=C/c2ccc(Cl)c([N+](=O)[O-])c2)cc(OC)c1OC | 32.1 | -4.4 | 42.3 | -5.8 | 2.3 | 9.6
3 | – | COc1cc(C2=NN(C(C)=O)C(c3cccc(OC)c3OC)O2)cc(OC)c1OC (stereo unspecified) | 35 | 0.1 | 58.2 | 3.8 | 17.5 | 2.8
4 | – | COc1cc(C2=NN(C(C)=O)C(c3ccc(C(F)(F)F)cc3)O2)cc(OC)c1OC (stereo unspecified) | -11 | -3.5 | -0.7 | 4.2 | 3.4 | 14.2
5 | – | COc1cc(C2=NN(C(C)=O)C(c3ccccc3F)O2)cc(OC)c1OC (stereo unspecified) | 13.5 | -1.5 | 31.6 | 29.6 | 32.8 | -2
6 | – | COc1cc(/C=N/NC(=O)c2cc(OC)c(OC)c(OC)c2)cc(OC)c1OC | 8.5 | 11.8 | 48.3 | -5 | 22.9 | 13.6
7 | – | COc1cc(C(=O)N/N=C/c2ccccc2F)cc(OC)c1OC | 70.6 | 58.9 | 81.8 | 51.6 | 76.5 | 81.8
8 | – | COc1cc(C2=NN(C(C)=O)C(c3ccc(Cl)c(Cl)c3)O2)cc(OC)c1OC (stereo unspecified) | 28.1 | -3.2 | 26.1 | -0.8 | 3.1 | 0
9 | – | COc1cc(C(=O)N/N=C/c2cccc(C(F)(F)F)c2)cc(OC)c1OC | 51 | 8.3 | 79.8 | 17.7 | 33.8 | 15.5
10 | – | COc1cc(C(=O)N/N=C/c2c(Cl)cccc2Cl)cc(OC)c1OC | 43 | -7.2 | 52.1 | 0.9 | 27.8 | 2.9
11 | – | COc1cc(C2=NN(C(C)=O)C(c3cccc(F)c3)O2)cc(OC)c1OC (stereo unspecified) | 16.5 | 14 | 43.5 | 14.7 | 37.7 | 23.8
12 | – | COc1cc(C2=NN(C(C)=O)C(c3ccc(F)cc3)O2)cc(OC)c1OC (stereo unspecified) | 0 | -1.4 | 0.1 | -0.4 | 13.3 | -0.1
13 | 300 | COc1ccc(C2OC(c3cc(OC)c(OC)c(OC)c3)=NN2C(C)=O)c(OC)c1 (stereo unspecified) | 69.5 | -0.3 | 92 | 6.3 | -3.1 | 2.5
14 | – | COc1cccc(/C=N/NC(=O)c2cc(OC)c(OC)c(OC)c2)c1OC | 53.2 | -2.3 | 67 | -0.1 | 14.2 | 12.3
15 | – | COc1cc(C2=NN(C(C)=O)C(c3ccccc3C(F)(F)F)O2)cc(OC)c1OC (stereo unspecified) | -11 | -1.2 | 15.2 | 31.8 | 34.8 | 16.2
